Experimental findings from ChEMBL document CHEMBL3232961, “Synthesis and evaluation of cyclohexane carboxylic acid head group containing isoxazole and thiazole analogs as DGAT1 inhibitors” (Eur J Med Chem, 2014) are described below.

The target of assay [1] is T1, Diacylglycerol O-acyltransferase 1 (Homo sapiens, UniProt O75907).
T1 sequence (O75907 whole entry): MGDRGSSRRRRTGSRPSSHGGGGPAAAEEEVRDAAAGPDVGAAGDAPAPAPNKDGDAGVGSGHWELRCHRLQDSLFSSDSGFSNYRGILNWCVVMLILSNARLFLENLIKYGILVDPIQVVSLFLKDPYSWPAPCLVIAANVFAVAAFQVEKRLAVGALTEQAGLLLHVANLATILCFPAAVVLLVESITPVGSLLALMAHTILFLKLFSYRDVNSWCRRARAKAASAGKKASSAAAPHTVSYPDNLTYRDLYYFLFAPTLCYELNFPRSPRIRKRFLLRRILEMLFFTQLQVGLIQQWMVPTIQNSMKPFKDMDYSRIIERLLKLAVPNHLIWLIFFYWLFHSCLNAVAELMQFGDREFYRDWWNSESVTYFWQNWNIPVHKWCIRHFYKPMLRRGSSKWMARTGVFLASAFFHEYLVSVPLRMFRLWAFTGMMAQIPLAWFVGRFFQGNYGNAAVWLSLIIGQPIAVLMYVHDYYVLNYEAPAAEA
The experiment in a line: Inhibition of human DGAT1 using 1,2-diacylglycerol/[14C]-oleoyl CoA as substrate assessed as [14C]-triglyceride formation after 10 mins by scintillation counting analysis.

In the next assay the test system is Mus musculus. As to the kind of experiment: Reduction of plasma triglyceride AUC (0 to 4 hrs) in fasted Swiss mouse at 3 mg/kg, po administered 1 hr followed by bolus dose of olive oil by acute fat tolerance test relative to vehicle-treated control. Format: functional. Further details: scale not given: the % may be the effect or the level left.

The structures appear in SMILES notation.

For `O=C(Nc1ccc(C2CCN(C(=O)[C@H]3CC[C@H](C(=O)O)CC3)CC2)cc1)c1nc(-c2ccccc2)oc1C(F)(F)F`, in assay [1], the IC50 was 114 nM. Also, the Activity in the assay on Mus musculus is listed as 89%.
In turn, `O=C(Nc1ccc(-c2cnc(C(=O)N[C@H]3CC[C@H](C(=O)O)CC3)s2)cc1)Nc1ccccc1F` showed an Activity with Mus musculus of 112%.

As usually defined, the IC50 is the concentration at which inhibition is half-maximal.
